According to the supplement of paper PMC4862054:

Tests used:
Experiment in all cases: normalised viability (% of control), CellTiter-Blue; higher = more viable cells (about 100 = DMSO control)
Conditions in all cases: incubation time: 72 h
[1] = test system: CAL-85-1
Procedure: (§1)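 DSRT, CellTiter-Blue viability, 72 h incubation. Signal is normalised to DMSO and benzethonium chloride controls. Value is the normalised response at dose 8.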

[2] = test system: HDQ-P1
Procedure: as §1

[3] = test system: DU-4475
Procedure: as §1

[4] = test system: CAL-51
Procedure: as §1

[5] = test system: MDA-MB-453
Procedure: as §1

[6] = test system: CAL-148
Procedure: as §1

[7] = test system: CAL-85-1; remark: listed apart in the source
Procedure: (§2)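 DSRT, CellTiter-Blue viability, 72 h incubation. Signal is normalised to DMSO and benzethonium chloride controls. Value is the normalised response at dose 6.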

[8] = test system: MDA-MB-453; remark: listed apart in the source
Procedure: as §2

[9] = test system: CAL-148; remark: listed apart in the source
Procedure: as §2

[10] = test system: MDA-MB-468
In short: (§3)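 Each entry is normalised viability at a single listed concentration within a series. It comes from breast cancer cell lines incubated 72 h with compound in 384-well plates, then measured with CellTiter-Blue fluorescence at 560/590 nm. Every plate was normalised between vehicle (100) and a positive kill control (0).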

[11] = test system: BT-549
In short: as §3

[12] = test system: HCC1599
In short: as §3

[13] = test system: Hs578T
In short: as §3

[14] = test system: CAL-85-1; remark: listed apart in the source
In short: as §3

[15] = test system: MDA-MB-436
In short: as §3

[16] = test system: SK-BR-3
In short: as §3

CCN(CC)CCCC(C)Nc1c2ccc(Cl)cc2nc2ccc(OC)cc12 (stereo not given) [Mepacrine]
Conditions	normalised viability [%]
[1], 297 nM	87.8
[1], 3000 nM	59.5
[2], 297 nM	56.8
[2], 3000 nM	42.9
[3], 297 nM	84
[3], 3000 nM	69.1
[4], 297 nM	93.3
[4], 3000 nM	77.8
[5], 297 nM	89
[5], 3000 nM	43.1
[6], 297 nM	73.2
[6], 3000 nM	56.4
[7], 29.7 nM	101
[7], 300 nM	100
[8], 29.7 nM	103
[8], 300 nM	101
[9], 29.7 nM	105
[9], 300 nM	102
[10], 0.99 nM	108
[10], 10 nM	104
[10], 99 nM	106
[10], 990 nM	43.4
[10], 1000 nM	94.7
[10], 10000 nM	5.97
[11], 0.99 nM	87
[11], 10 nM	87.2
[11], 99 nM	82.2
[11], 990 nM	37.6
[11], 1000 nM	88.9
[11], 10000 nM	17.8
[12], 0.99 nM	105
[12], 10 nM	85.5
[12], 99 nM	82.1
[12], 990 nM	67.3
[12], 1000 nM	79.5
[12], 10000 nM	30.9
[13], 0.99 nM	111
[13], 10 nM	107
[13], 99 nM	118
[13], 990 nM	38.5
[13], 1000 nM	122
[13], 10000 nM	21.6
[14], 0.297 nM	114
[14], 2.97 nM	95.7
[14], 3 nM	94.3
[14], 9.9 nM	98.9
[14], 30 nM	88.1
[14], 100 nM	105
[15], 0.99 nM	109
[15], 10 nM	101
[15], 99 nM	105
[15], 990 nM	33
[15], 1000 nM	81.4
[15], 10000 nM	9.64
[16], 0.99 nM	100
[16], 10 nM	110
[16], 99 nM	104
[16], 990 nM	27.9
[16], 1000 nM	101
[16], 10000 nM	2.49
